Numbered stars: 1 amine (or outer) side, 2 acyl side, 3 side chain; on linkers, the order of the positions; unused ones are H or OH. Bridge positions count the residues as written; N and C are the ends. Square brackets hold non-standard residues; d marks the D form. Peptide text beside a SMILES is read from it. * marks the point of attachment. X4 = CC[C@H](C)[C@@H](N[*:1])[C@@H](O)CC(=O)O[C@@H](C(C)C)[C@H](O)[C@H](C)C(=O)[*:2]; X2 = CC[C@H](C)[C@@H](N[*:1])[C@@H](O)CC(=O)O[C@@H](C(=O)[C@H](C)C(=O)[*:2])C(C)C; X5 = CC[C@@H](C)[C@@H](N[*:1])[C@@H](O)CC(=O)O[C@H](C(=O)[C@H](C)C(=O)[*:2])C(C)C; X1 = CC[C@H](C)[C@@H](N[*:1])[C@@H](O)CC(=O)O[C@H](C(=O)[C@H](C)C(=O)[*:2])C(C)C; X3 = CC[C@H](C)[C@H](N[*:1])[C@@H](O)CC(=O)O[C@H](C(=O)[C@H](C)C(=O)[*:2])C(C)C; X6 = CC[C@H](C)[C@@H](N[*:1])[C@H](O)CC(=O)O[C@H](C(=O)[C@H](C)C(=O)[*:2])C(C)C; NMeY = CN[C@@H](Cc1ccc(O)cc1)C(=O)O; dNMeL = CN[C@H](CC(C)C)C(=O)O; Cbz = O=C(OCc1ccccc1)*
Legend:
[1] = test system: Balb/c splenocytes (resting lymphocytes); assay: Lymphocyte viability (LcV) assay; type: cell-based, murine; conditions: unstimulated Balb/c splenocytes, MTT
Protocol: Forty two (42) didemnin compounds (see Table 1) were evaluated for cytotoxicity to one of the lymphocyte populations in the MLR (i.e., Balb/c splenocytes). The purpose of the lymphocyte viability assay (LcV) is to measure metabolic activity in lymphocytes after they have been exposed to the compounds for the duration of an under conditions equivalent to the MLR. The inverse of the data yields cytotoxicity information about the compounds on murine lymphocytes. The rationale of using resting cells, in this case unstimulated lymphocytes, to measure cytotoxicity has a strategic importance. In the MLR the heterogenous cell populations are predominantly resting cells when the assay begins.
Test compounds were prepared in two sets as described above. Splenocytes were prepared as described previously from one murine strain (Balb/c), and a volume of 200 μL of the cell suspension was added to one set of test compounds and control wells.
Assay plates were incubated as in the MLR and then pulsed overnight 75 μL per well MTT-thiazolyl blue solution (150 μg). The plates were decanted and the resulting insoluble formazan crystals were dissolved in 200 μL of isopropyl alcohol. Absorbance at 570 nm was measured.
The LcV data were calculated as a percentage of basal metabolic activity, or percent viability, relative to BALB/c control, and an LC50 value was interpolated for each test compound.

[2] = test system: murine splenocytes (Balb/c and C57B1/6); assay: Two-way mixed lymphocyte reaction (MLR) assay; conditions: Balb/c + C57B1/6 splenocytes, 96 h, [3H]thymidine; for IC50: read-out: two-way mixed lymphocyte reaction (MLR) suppression MLR, IC50;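 as to all read-outs here: proliferation read as tritiated thymidine incorporation into newly made DNA after an overnight pulse, expressed as percent of control activity, IC50 interpolated per compound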
[3] = test system: concanavalin A-induced lymphoblasts (Con A splenocytes); assay: Lymphoblast viability (LbV) assay; conditions: Con A-stimulated splenocytes (lymphoblasts), MTT
[4] = test system: CB6F1 mice grafted with Balb/c splenocytes; assay: Graft vs host reaction (GVHR) splenomegaly assay; type: in vivo; conditions: 200 mg/Kg/day, QD 1-7, ip
Protocol: Three representative compounds didemnin M (38), O-pGlu-DB (37), and didemnin B (1)-showing high (37,38) or moderate (1) in vivo immunosuppressive activity were subsequently evaluated in a multidose assay (0.16,0.016, and 0.0016 mg/kg per injection; qd 1-7) for their in vivo immunosuppressive effects on the GVHR splenomegaly assay.
Three didemnins (didemnin B, didemnin M, and pGlu-didemnin B) were evaluated in a modified Simonsen splenomegaly assay. Briefly, an F1 hybrid host animal is grated with immunocompetent spleen cells from the parent strain. The index used to measure the success of the GVHR is splenomegaly (increased spleen weight due to cellular proliferation of grafted lymphocytes). An index>1.3 (graft index) is considered to be a successful graft rejection of the recipient animal. Immunosuppression is considered as a reduction of the graft index.
On day O, CB6F1 female mice, 4 weeks of age, were grated by intraperitoneal (ip) injection of 50×10^5 splenocytes from BALB/c female mice in high-glucose ([…]) Dulbecco's modified Eagles medium. A syngeneic control group (CB6F1 --CB6F1) was similarly prepared and served as the negative control. Grafted mice were divided into treatment groups containing six mice each. Groups were injected ip with test compound (dissolved in vehicle; 1% abs. EtOH in sterile phosphate-buffered saline) at one of three dose levels (0.16, 0.016, and 0.0016 mg/kg per injection) in a multidose assay, cyclophosphamide (200 mg/kg per injection) or vehicle on days 1-7 (qd 1-7). On day 8 all groups were sacrificed, spleens were excised, and a graft index was calculated for each group by the following formula: [formula]

Compound	cytoxicity to lymphocytes LcV, LC50 [1] [nM]	cytoxicity to lymphocytes LcV, LC50 ([1]; highest concentration 10 μg/mL) [µg/mL]	two-way mixed lymphocyte reaction (MLR) suppression MLR, IC50 [2] [µg/mL]	IC50 [2] [nM]	cytotoxicity to lymphocytes LbV, LC50 [3] [nM]	alive day 8 [4] [%]	body weight change day 5 [4] [g]	body weight day 5 (g ± SD) [4] [g]	index (spleen wt. treated/spleen wt. syngenetic injection) [4]	mean group spleen wt. normalized to day 8 body weight [4]
CC[C@H](C)[C@H]1NC(=O)[C@@H](NC(=O)[C@@H](CC(C)C)NC)[C@@H](C)OC(=O)[C@H](Cc2ccc(OC)cc2)N(C)C(=O)[C@@H]2CCCN2C(=O)[C@H](CC(C)C)NC(=O)[C@@H](C)C(=O)[C@H](C(C)C)OC(=O)C[C@@H]1O [Compound 2, Didemnin A] (H-[dNMeL]T[X1]LP[NMeY](Me); ester 2-C)	> 11000	> 10	0.00093	0.98	15					
CC[C@H](C)[C@H]1NC(=O)[C@@H](NC(=O)[C@@H](CC(C)C)N(C)C(=O)OCc2ccccc2)[C@@H](C)OC(=O)[C@H](Cc2ccc(OC)cc2)N(C)C(=O)[C@@H]2CCCN2C(=O)[C@H](CC(C)C)NC(=O)[C@@H](C)C(=O)[C@H](C(C)C)OC(=O)C[C@@H]1O [Compound 3, Z-Didemnin A] (Cbz-[dNMeL]T[X1]LP[NMeY](Me); ester 2-C)	7500	8.10	0.0011	1.02	1.9					
CC[C@H](C)[C@H]1NC(=O)[C@@H](NC(=O)[C@@H](CC(C)C)N(C)C(=O)OCc2ccccc2)[C@@H](C)OC(=O)[C@H](Cc2ccc(OC)cc2)N(C)C(=O)[C@@H]2CCCN2C(=O)[C@H](CC(C)C)NC(=O)[C@@H](C)C(=O)[C@H](C(C)C)OC(=O)C[C@H]1O [Compound 4, Z-[(3R,4R,5S)Ist^2]Didemnin A] (Cbz-[dNMeL]T[X6]LP[NMeY](Me); ester 2-C)	9000	9.70	0.019	18	220					
CC[C@@H](C)[C@H]1NC(=O)[C@@H](NC(=O)[C@@H](CC(C)C)N(C)C(=O)OCc2ccccc2)[C@@H](C)OC(=O)[C@H](Cc2ccc(OC)cc2)N(C)C(=O)[C@@H]2CCCN2C(=O)[C@H](CC(C)C)NC(=O)[C@@H](C)C(=O)[C@H](C(C)C)OC(=O)C[C@@H]1O [Compound 5, Z-[(3S,4R,5R)-Ist^2]Didemnin A] (Cbz-[dNMeL]T[X5]LP[NMeY](Me); ester 2-C)	> 9300	> 10	0.0003	0.28	12					
CC[C@H](C)[C@@H]1NC(=O)[C@@H](NC(=O)[C@@H](CC(C)C)N(C)C(=O)OCc2ccccc2)[C@@H](C)OC(=O)[C@H](Cc2ccc(OC)cc2)N(C)C(=O)[C@@H]2CCCN2C(=O)[C@H](CC(C)C)NC(=O)[C@@H](C)C(=O)[C@H](C(C)C)OC(=O)C[C@@H]1O [Compound 6, Z-[(3S,4S,5S)-Ist^2]Didemnin A] (Cbz-[dNMeL]T[X3]LP[NMeY](Me); ester 2-C)	> 9300	> 10	0.29	270	2600					
CC[C@H](C)[C@H]1NC(=O)[C@@H](NC(=O)[C@@H](CC(C)C)NC)[C@@H](C)OC(=O)[C@H](Cc2ccc(OC)cc2)N(C)C(=O)[C@@H]2CCCN2C(=O)[C@H](CC(C)C)NC(=O)[C@@H](C)C(=O)[C@H](C(C)C)OC(=O)C[C@@H]1OC(C)=O [Compound 7, O-Acetyldidemnin A]	> 10000	> 10	0.1	100	77					
CC[C@H](C)[C@H]1NC(=O)[C@@H](NC(=O)[C@@H](CC(C)C)NC)[C@@H](C)OC(=O)[C@H](Cc2ccc(OC)cc2)N(C)C(=O)[C@@H]2CCCN2C(=O)[C@H](CC(C)C)NC(=O)[C@@H](C)[C@@H](O)[C@H](C(C)C)OC(=O)C[C@@H]1O [Compound 10, [(2S,3R,4S)-H2 Hip^3]Didemnin A] (H-[dNMeL]T[X4]LP[NMeY](Me); ester 2-C)	> 10600	> 10	0.029	30.5	460					
CC[C@H](C)[C@H]1NC(=O)[C@@H](NC(=O)[C@@H](CC(C)C)N(C)C(=O)[C@@H]2CCCN2C(=O)[C@H](C)O)[C@@H](C)OC(=O)[C@H](Cc2ccc(OC)cc2)N(C)C(=O)[C@@H]2CCCN2C(=O)[C@H](CC(C)C)NC(=O)[C@@H](C)C(=NO)[C@H](C(C)C)OC(=O)C[C@@H]1O [Compound 11, [Hip^3 oxime]Didemnin B]	> 8900	> 10	0.00096	0.85	1.7					
CC[C@H](C)[C@H]1NC(=O)[C@@H](NC(=O)[C@@H](CC(C)C)NC)[C@@H](C)OC(=O)[C@H](Cc2ccc(OC)cc2)N(C)C(=O)[C@@H]2CCCN2C(=O)[C@H](CC(C)C)NC(=O)[C@@H](C)C(=O)[C@@H](C(C)C)OC(=O)C[C@@H]1O [Compound 12, Epididemnin A1] (H-[dNMeL]T[X2]LP[NMeY](Me); ester 2-C)	> 10600	> 10	0.081	86	51					
CC[C@H](C)[C@H]1NC(=O)[C@@H](NC(=O)[C@@H](CC(C)C)N(C)C(=O)[C@@H]2CCCN2C(=O)[C@H](C)O)[C@@H](C)OC(=O)[C@H](Cc2ccc(O)cc2)NC(=O)[C@@H]2CCCN2C(=O)[C@H](CC(C)C)NC(=O)[C@@H](C)C(=O)[C@H](C(C)C)OC(=O)C[C@@H]1O [Compound 13, Didemnin N]	> 9200	> 10	0.037	34.2	210					
CC[C@H](C)[C@H]1NC(=O)[C@@H](NC(=O)[C@@H](CC(C)C)N(C)C(=O)[C@@H]2CCCN2C(=O)[C@H](C)O)[C@@H](C)OC(=O)[C@H](CC2CCC(OC)CC2)N(C)C(=O)[C@@H]2CCCN2C(=O)[C@H](CC(C)C)NC(=O)[C@@H](C)C(=O)[C@H](C(C)C)OC(=O)C[C@@H]1O (stereo partly shown) [Compound 15, [H6 Me2 Tyr6]Didemnin B]			0.00081	0.72	1.6					
O=P1(N(CCCl)CCCl)NCCCO1 (stereo not shown) [Cyclophosphamide, reference compound]						100	-2.5	13.8 ± 0.4	0.14	0.4

Reference: US6156724A, “Uses of didemnins as immunomodulating agents” (priority 1998, dated 2000)
